{
  "source": "paper PMC10165273",
  "about": "“Itch receptor MRGPRX4 interacts with the receptor activity–modifying proteins” (The Journal of Biological Chemistry, 2023)",
  "target": "T1, MRGPRX4 + RAMP1 (Homo sapiens, UniProt Q96LA9)",
  "T1 construct": "expressed in transfected cells; host or cells: HEK293T",
  "T1 sequence (Q96LA9 whole entry)": "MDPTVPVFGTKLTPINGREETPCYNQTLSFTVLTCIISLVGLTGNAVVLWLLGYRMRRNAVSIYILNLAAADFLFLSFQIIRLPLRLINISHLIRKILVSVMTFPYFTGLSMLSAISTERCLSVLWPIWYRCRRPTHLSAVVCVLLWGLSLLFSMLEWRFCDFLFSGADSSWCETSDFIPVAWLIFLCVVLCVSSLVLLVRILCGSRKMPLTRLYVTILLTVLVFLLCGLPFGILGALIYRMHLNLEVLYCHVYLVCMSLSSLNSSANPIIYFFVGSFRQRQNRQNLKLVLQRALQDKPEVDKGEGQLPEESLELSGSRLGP",
  "assay": "IP1 accumulation, MRGPRX4 coexpressed with RAMP1",
  "assay_type": "cell-based",
  "parameters": "key to IP1 Basal / response to agonist, X4:ramp1.I:1 / response to agonist, X4:ramp1.I:2 / response to agonist, X4:ramp1.I:0.25 / response to agonist, X4:ramp1.I:0.5: % IP1; unstimulated mock = 0%, fully stimulated MRGPRX4 = 100%; potency: unit not given here",
  "conditions": "for activation at 100 µM / activation at 20 µM / activation at 4 µM / activation at 0.8 µM / activation at […] / activation at 0.032 µM: 2 h, Fig S3a, read-out: IP1 accumulation; for activation at 100 µM: log [Nateglinide] (M) -4; for activation at 20 µM: log [Nateglinide] (M) -4.69897; for activation at 4 µM: log [Nateglinide] (M) -5.39794; for activation at 0.8 µM: log [Nateglinide] (M) -6.09691; for activation at […]: log [Nateglinide] (M) -6.79588; for activation at 0.032 µM: log [Nateglinide] (M) -7.49485; for Emax: Figure 4a bottom, MRGPRX4 alone = 100, read-out: efficacy; for EC50: read-out: potency (converted)",
  "experimental": "HEK293T cells were transfected with 1 pg/cell of MRGPRX4 DNA, and the amount of DNA was kept constant at 2 pg/cell with pcDNA3.1(+) empty vector, unless otherwise specified. Twenty four hours after transfection, IP1 assay was performed as previously described ([51]). When applicable, cells were treated with 1 μM YM254890 (YM) or different concentrations of U73122 for 1 h prior to addition of agonist or buffer. After incubation for 2 h, HTRF reagents and IP1 calibration standards were added and incubated for 2 h in the dark at room temperature. Time-resolved fluorescence signals were read on the BioTek Synergy NEO-TRF Hybrid multi-mode reader (BioTek Instruments). All data were carried out in three independent experiments with three technical replicate each.\nFor a homogenous transfection of MRGPRX4, a master mix of MRGPRX4 DNA was made prior to addition of the RAMP DNA. […]\nData reduction, standard calibration, and transformation of HTRF data were performed as previously described ([51]). Normalized IP1 values were calculated relative to the unstimulated mock-transfected cells (set to 0%) and fully stimulated MRGPRX4 (alone if applicable) (set to 100%).",
  "key": {"[1]": {"conditions": "Figure 4a top, DNA ratio MRGPRX4:RAMP1 1:0.5, individual replicates"}},
  "note": "“And” between values parts separate entries of the source, which are not always exact repeats. Identical values can stand only once. Like-named read-outs stand apart in the source and are kept apart here.",
  "data": [
    {"smiles": "CC(C)[C@H]1CC[C@H](C(=O)N[C@H](Cc2ccccc2)C(=O)O)CC1", "note": "[Nateglinide]", "values": [
      {"measurement": "activation at 100 µM", "setting": "ratio MRGPRX4:RAMP1 1:0.25", "result": 102, "unit": "%"},
      {"measurement": "activation at 20 µM", "setting": "ratio MRGPRX4:RAMP1 1:0.25", "result": 76.7, "unit": "%"},
      {"measurement": "activation at 4 µM", "setting": "ratio MRGPRX4:RAMP1 1:0.25", "result": 42.2, "unit": "%"},
      {"measurement": "activation at 0.8 µM", "setting": "ratio MRGPRX4:RAMP1 1:0.25", "result": 29.4, "unit": "%"},
      {"measurement": "activation at […]", "setting": "ratio MRGPRX4:RAMP1 1:0.25", "result": 26.1, "unit": "%"},
      {"measurement": "activation at 0.032 µM", "setting": "ratio MRGPRX4:RAMP1 1:0.25", "result": 24, "unit": "%"},
      {"measurement": "activation at 100 µM", "setting": "ratio MRGPRX4:RAMP1 1:1", "result": 114, "unit": "%"},
      {"measurement": "activation at 20 µM", "setting": "ratio MRGPRX4:RAMP1 1:1", "result": 87.9, "unit": "%"},
      {"measurement": "activation at 4 µM", "setting": "ratio MRGPRX4:RAMP1 1:1", "result": 43.7, "unit": "%"},
      {"measurement": "activation at 0.8 µM", "setting": "ratio MRGPRX4:RAMP1 1:1", "result": 22.8, "unit": "%"},
      {"measurement": "activation at […]", "setting": "ratio MRGPRX4:RAMP1 1:1", "result": 17.6, "unit": "%"},
      {"measurement": "activation at 0.032 µM", "setting": "ratio MRGPRX4:RAMP1 1:1", "result": 16, "unit": "%"},
      {"measurement": "activation at 100 µM", "setting": "ratio MRGPRX4:RAMP1 1:2", "result": 117, "unit": "%"},
      {"measurement": "activation at 20 µM", "setting": "ratio MRGPRX4:RAMP1 1:2", "result": 93.3, "unit": "%"},
      {"measurement": "activation at 4 µM", "setting": "ratio MRGPRX4:RAMP1 1:2", "result": 44.8, "unit": "%"},
      {"measurement": "activation at 0.8 µM", "setting": "ratio MRGPRX4:RAMP1 1:2", "result": 18.6, "unit": "%"},
      {"measurement": "activation at […]", "setting": "ratio MRGPRX4:RAMP1 1:2", "result": 14.5, "unit": "%"},
      {"measurement": "activation at 0.032 µM", "setting": "ratio MRGPRX4:RAMP1 1:2", "result": 12.5, "unit": "%"},
      {"measurement": "activation at 100 µM", "setting": "ratio MRGPRX4:RAMP 1:0.5", "result": 113, "unit": "%"},
      {"measurement": "activation at 20 µM", "setting": "ratio MRGPRX4:RAMP 1:0.5", "result": 93.7, "unit": "%"},
      {"measurement": "activation at 4 µM", "setting": "ratio MRGPRX4:RAMP 1:0.5", "result": 46.5, "unit": "%"},
      {"measurement": "activation at 0.8 µM", "setting": "ratio MRGPRX4:RAMP 1:0.5", "result": 24.4, "unit": "%"},
      {"measurement": "activation at […]", "setting": "ratio MRGPRX4:RAMP 1:0.5", "result": 18.5, "unit": "%"},
      {"measurement": "activation at 0.032 µM", "setting": "ratio MRGPRX4:RAMP 1:0.5", "result": 18.7, "unit": "%"},
      {"measurement": "Emax", "setting": "DNA ratio MRGPRX4:RAMP1 1:0.25", "result": 109, "unit": "%"},
      {"measurement": "Emax", "setting": "DNA ratio MRGPRX4:RAMP1 1:0.5", "result": 115, "unit": "%"},
      {"measurement": "Emax", "setting": "DNA ratio MRGPRX4:RAMP1 1:0.75", "result": 118, "unit": "%"},
      {"measurement": "Emax", "setting": "DNA ratio MRGPRX4:RAMP1 1:1", "result": 126, "unit": "%"},
      {"measurement": "EC50", "setting": "Figure 4a top, DNA ratio MRGPRX4:RAMP1 1:0.25, individual replicates", "result": "11.1 µM and 9.42 µM and 15.2 µM"},
      {"measurement": "potency", "setting": "[1]", "result": 5.042},
      {"measurement": "EC50", "setting": "[1]", "result": 10.5, "unit": "µM"},
      {"measurement": "EC50", "setting": "Figure 4a top, DNA ratio MRGPRX4:RAMP1 1:0.75, individual replicates", "result": "10.7 µM and 11.9 µM and 6.64 µM"},
      {"measurement": "EC50", "setting": "Figure 4a top, DNA ratio MRGPRX4:RAMP1 1:1, individual replicates", "result": "9.29 µM and 9.23 µM"},
      {"measurement": "response to agonist, X4:ramp1.I:0.25", "setting": "Figure 4c-f, agonist 100µM, X4:ramp1 1:0.25, MRGPRX4 = 100", "result": "94.0571 and 91.2695"},
      {"measurement": "response to agonist, X4:ramp1.I:0.5", "setting": "Figure 4c-f, agonist 100µM, X4:ramp1 1:0.5, MRGPRX4 = 100", "result": "83.4975 and 100.084"},
      {"measurement": "response to agonist, X4:ramp1.I:1", "setting": "Figure 4c-f, agonist 100µM, X4:ramp1 1:1, MRGPRX4 = 100", "result": "101.298 and 92.1048"},
      {"measurement": "response to agonist, X4:ramp1.I:2", "setting": "Figure 4c-f, agonist 100µM, X4:ramp1 1:2, MRGPRX4 = 100", "result": "90.9768 and 105.34"},
      {"measurement": "IP1 Basal", "setting": "MRGPRX4 + RAMP1 0.25 pg (Fig. S3), normalized per agonist", "result": 19.44}
    ]}
  ]
}
